Source: patent US7601686B2, “Hepatitis C virus inhibitors” (Bristol-Myers Squibb Company, priority 2005, dated 2009)
Read-outs that look alike come from different tables or passages of the source.

What was measured:
[1] = target: T1, HCV NS3/4A protease complex, BMS strain (UniProt P27958, species not given/STRAIN_BMS); assay: FRET peptide assay to monitor HCV NS3/4A proteolytic activity (BMS strain); type: biochemical, Hepatitis C virus (genotype 1a)
T1 construct: DNA encoding the recombinant HCV NS3/4A protease complex (amino acids 1027 to 1711) for these strains [H77 and J4L6S]; fused on or other part: For the H77 and J4L6S constructs, a three-lysine solubilising tail at the NS4A C-terminus and a Ni-NTA-purifiable tag from pET21b
Excerpt: Generation of Recombinant HCV NS3/4A Protease Complex
HCV NS3 protease complexes, derived from the BMS strain, H77 strain or J4L6S strain, were generated, as described below. These purified recombinant proteins were generated for use in a homogeneous assay (see below) to provide an indication of how effective compounds of the present disclosure would be in inhibiting HCV NS3 proteolytic activity.
Serum from an HCV-infected patient was obtained from Dr. T. Wright, San Francisco Hospital. An engineered full-length cDNA (compliment deoxyribonucleic acid) template of the HCV genome (BMS strain) was constructed from DNA fragments obtained by reverse transcription-PCR (RT-PCR) of serum RNA (ribonucleic acid) and using primers selected on the basis of homology between other genotype 1a strains. From the determination of the entire genome sequence, a genotype 1a was assigned to the HCV isolate according to the classification of Simmonds et al. (See P Simmonds, K A Rose, S Graham, S W Chan, F McOmish, B C Dow, E A Follett, P L Yap and H Marsden, J. Clin. Microbiol., 31(6), 1493-1503 (1993)). […] The infectious clones, H77 (1a genotype) and J4L6S (1b genotype) were obtained from R. Purcell (NIH) and the sequences are published in Genbank (AAB67036, see Yanagi, M., Purcell, R. H., Emerson, S. U. and Bukh, J. Proc. Natl. Acad. Sci. U.S.A. 94(16), 8738-8743 (1997); AF054247, see Yanagi, M., St Claire, M., Shapiro, M., Emerson, S. U., Purcell, R. H. and Bukh, J, Virology 244 (1), 161-172. (1998)).
The H77 and J4L6S strains were used for production of recombinant NS3/4A protease complexes. DNA encoding the recombinant HCV NS3/4A protease complex (amino acids 1027 to 1711) for these strains were manipulated as described by P. Gallinari et al. (see Gallinari P, Paolini C, Brennan D, Nardi C, Steinkuhler C, De Francesco R. Biochemistry. 38(17):5620-32, (1999)). Briefly, a three-lysine solubilizing tail was added at the 3′-end of the NS4A coding region. The cysteine in the P1 position of the NS4A-NS4B cleavage site (amino acid 1711) was changed to a glycine to avoid the proteolytic cleavage of the lysine tag. Furthermore, a cysteine to serine mutation was introduced by PCR at amino acid position 1454 to prevent the autolytic cleavage in the NS3 helicase domain. The variant DNA fragment was cloned in the pET21b bacterial expression vector (Novagen) and the NS3/4A complex was expressed in Escherichia coli strain BL21 (DE3) (Invitrogen) following the protocol described by P. Gallinari et al. (see Gallinari P, Brennan D, Nardi C, Brunetti M, Tomei L, Steinkuhler C, De Francesco R., J. Virol. 72(8):6758-69 (1998)) with modifications. Briefly, the NS3/4A protease complex expression was induced with 0.5 millimolar (mM) Isopropyl β-D-1-thiogalactopyranoside (IPTG) for 22 hours (h) at 20° C. A typical fermentation (1 Liter (L)) yielded approximately 10 grams (g) of wet cell paste. The cells were resuspended in lysis buffer (10 mL/g) consisting of 25 mM N-(2-Hydroxyethyl)piperazine-N′-(2-Ethane Sulfonic acid) (HEPES), pH 7.5, 20% glycerol, 500 mM Sodium Chloride (NaCl), 0.5% Triton X-100, 1 microgram/milliliter (“μg/mL”) lysozyme, 5 mM Magnesium Chloride (MgCl2), 1 μg/mL DnaseI, 5 mM β-Mercaptoethanol (βME), Protease inhibitor—Ethylenediamine Tetraacetic acid (EDTA) free (Roche), homogenized and incubated for 20 minutes (min) at 4° C. The homogenate was sonicated and clarified by ultra-centrifugation at 235000 g for 1 h at 4° C. Imidazole was added to the supernatant to a final concentration of 15 mM and the pH adjusted to 8.0. The crude protein extract was loaded on a Nickel—Nitrilotriacetic acid (Ni-NTA) column pre-equilibrated with buffer B (25 mM HEPES, pH 8.0, 20% glycerol, 500 mM NaCl, 0.5% Triton X-100, 15 mM imidazole, 5 mM βME). The sample was loaded at a flow rate of 1 mL/min. The column was washed with 15 column volumes of buffer C (same as buffer B except with 0.2% Triton X-100). […]

[2] = system: HCV replicon in HUH-7 cells; assay: HCV replicon FRET assay; type: cell-based, Hepatitis C virus (strain 1b); conditions: Hepatitis C virus; HCV replicon cell assay, HUH-7; read-out: EC50 Range
Excerpt: Generation of HCV Replicon
An HCV replicon whole cell system was established as described by Lohmann V, Korner F, Koch J, Herian U, Theilmann L, Bartenschlager R., Science 285(5424):110-3 (1999). This system enabled us to evaluate the effects of our HCV Protease compounds on HCV RNA replication. Briefly, using the HCV strain 1b sequence described in the Lohmann paper (Assession number:AJ238799), an HCV cDNA was synthesized by Operon Technologies, Inc. (Alameda, Calif.), and the full-length replicon was then assembled in plasmid pGem9zf(+) (Promega, Madison, Wis.) using standard molecular biology techniques. The replicon consists of (i) the HCV 5′ UTR fused to the first 12 amino acids of the capsid protein, (ii) the neomycin phosphotransferase gene (neo), (iii) the IRES from encephalomyocarditis virus (EMCV), and (iv) HCV NS3 to NS5B genes and the HCV 3′ UTR. Plasmid DNAs were linearized with ScaI and RNA transcripts were synthesized in vitro using the T7 MegaScript transcription kit (Ambion, Austin, Tex.) according to manufacturer's directions. In vitro transcripts of the cDNA were transfected into the human hepatoma cell line, HUH-7. […] Resulting cell lines were characterized for positive and negative strand RNA production and protein production over time.
The HCV replicon FRET assay was developed to monitor the inhibitory effects of compounds described in the disclosure on HCV viral replication. HUH-7 cells, constitutively expressing the HCV replicon, were grown in Dulbecco's Modified Eagle Media (DMEM) (Gibco-BRL) containing 10% Fetal calf serum (FCS) (Sigma) and 1 mg/mL G418 (Gibco-BRL). Cells were seeded the night before (1.5×10^4 cells/well) in 96-well tissue-culture sterile plates. Compound and no compound controls were prepared in DMEM containing 4% FCS, 1:100 Penicillin/Streptomysin (Gibco-BRL), 1:100 L-glutamine and 5% DMSO in the dilution plate (0.5% DMSO final concentration in the assay). Compound/DMSO mixes were added to the cells and incubated for 4 days at 37° C. After 4 days, cells were first assessed for cytotoxicity using alamar Blue (Trek Diagnotstic Systems) for a CC50 reading. The toxicity of compound (CC50) was determined by adding 1/10th volume of alamar Blue to the media incubating the cells. After 4 h, the fluorescence signal from each well was read, with an excitation wavelength at 530 nm and an emission wavelength of 580 nm, using the Cytofluor Series 4000 (Perspective Biosystems). Plates were then rinsed thoroughly with Phosphate-Buffered Saline (PBS) (3 times 150 μl).

[3] = NS3/4A BMS strain, enzyme assay; read-out: IC 50 Range
[4] = read-out: IC 50 Range; NS3/4A BMS strain, enzyme assay

T1 sequence (P27958 1027-1657, stated change not applied, one chain of several): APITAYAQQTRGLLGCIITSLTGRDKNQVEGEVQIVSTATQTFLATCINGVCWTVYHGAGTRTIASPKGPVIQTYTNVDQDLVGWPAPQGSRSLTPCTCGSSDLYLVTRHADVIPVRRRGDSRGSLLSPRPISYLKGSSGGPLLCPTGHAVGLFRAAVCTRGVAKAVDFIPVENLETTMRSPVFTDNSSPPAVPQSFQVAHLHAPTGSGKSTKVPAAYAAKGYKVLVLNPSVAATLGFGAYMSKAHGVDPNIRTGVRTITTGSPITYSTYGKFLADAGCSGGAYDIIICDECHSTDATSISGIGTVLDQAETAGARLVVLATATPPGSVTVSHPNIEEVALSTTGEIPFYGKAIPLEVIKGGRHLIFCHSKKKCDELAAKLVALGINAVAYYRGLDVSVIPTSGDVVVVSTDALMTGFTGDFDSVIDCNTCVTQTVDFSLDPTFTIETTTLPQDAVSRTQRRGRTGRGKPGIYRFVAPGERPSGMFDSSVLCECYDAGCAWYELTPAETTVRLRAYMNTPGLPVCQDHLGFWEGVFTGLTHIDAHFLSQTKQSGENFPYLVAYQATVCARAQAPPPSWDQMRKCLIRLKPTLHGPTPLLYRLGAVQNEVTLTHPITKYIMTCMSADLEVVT

## C=CC1CC1(NC(=O)[C@@H]1C[C@@H](NC(=O)c2ccc3ccccc3n2)CN1C(=O)[C@@H](NC(=O)CC1CC1)C(C)(C)C)C(=O)NS(=O)(=O)C1CC1 (stereo partly shown) [Compound 25]
[1]; [3]
  IC50: < 150 nM
[2]
  EC50: 0.15 to 15 µM

## C=CC1CC1(NC(=O)[C@@H]1C[C@@H](NC(=O)c2cc3ccccc3n2C)CN1C(=O)[C@@H](NC(=O)CC1CC1)C(C)(C)C)C(=O)NS(=O)(=O)C1CC1 (stereo partly shown) [Compound 26]
[1]; [3]
  IC50: < 150 nM
[2]
  EC50: 0.15 to 15 µM

## C=CC1CC1(NC(=O)[C@@H]1C[C@@H](NC(=O)c2cc3ccccc3o2)CN1C(=O)[C@@H](NC(=O)CC1CC1)C(C)(C)C)C(=O)NS(=O)(=O)C1CC1 (stereo partly shown) [Compound 27]
[1]; [3]
  IC50: < 150 nM
[2]
  EC50: 0.15 to 15 µM

## C=CC1CC1(NC(=O)[C@@H]1C[C@@H](NC(=O)c2cc3ccccc3cn2)CN1C(=O)[C@@H](NC(=O)CC1CC1)C(C)(C)C)C(=O)NS(=O)(=O)C1CC1 (stereo partly shown) [Compound 28]
[1]; [3]
  IC50: < 150 nM
[2]
  EC50: 0.15 to 15 µM

## C=CC1CC1(NC(=O)[C@@H]1C[C@@H](NC(=O)c2sc3ccccc3c2Cl)CN1C(=O)[C@@H](NC(=O)CC1CC1)C(C)(C)C)C(=O)NS(=O)(=O)C1CC1 (stereo partly shown) [Compound 29]
[1]; [3]
  IC50: < 150 nM
[2]
  EC50: 0.15 to 15 µM

## C=CC1CC1(NC(=O)[C@@H]1C[C@@H](NC(=O)c2cccc3c2OCC3)CN1C(=O)[C@@H](NC(=O)CC1CC1)C(C)(C)C)C(=O)NS(=O)(=O)C1CC1 (stereo partly shown) [Compound 30]
[1]; [3]
  IC50: 150 to 15000 nM
[2]
  EC50: > 15 µM

## C=CC1CC1(NC(=O)[C@@H]1C[C@@H](NC(=O)c2cccc3cccnc23)CN1C(=O)[C@@H](NC(=O)CC1CC1)C(C)(C)C)C(=O)NS(=O)(=O)C1CC1 (stereo partly shown) [Compound 31]
[1]; [3]
  IC50: < 150 nM
[2]
  EC50: 0.15 to 15 µM

## C=CC1CC1(NC(=O)[C@@H]1C[C@@H](NC(=O)c2cc3ccccc3s2)CN1C(=O)[C@@H](NC(=O)CC1CC1)C(C)(C)C)C(=O)NS(=O)(=O)C1CC1 (stereo partly shown) [Compound 32]
[1]; [3]
  IC50: < 150 nM
[2]
  EC50: 0.15 to 15 µM

## C=CC1CC1(NC(=O)C1CC(NC(=O)c2cccc[n+]2[O-])CN1C(=O)C(NC(=O)CC1CC1)C(C)(C)C)C(=O)NS(=O)(=O)C1CC1 (stereo not shown) [Compound 33]
[1]; [4]
  IC50: 150 to 15000 nM
[2]
  EC50: > 15 µM

## C=CC1CC1(NC(=O)C1CC(NC(=O)c2ccc3ccccc3[n+]2[O-])CN1C(=O)C(NC(=O)CC1CC1)C(C)(C)C)C(=O)NS(=O)(=O)C1CC1 (stereo not shown) [Compound 34]
[1]; [4]
  IC50: < 150 nM
[2]
  EC50: 0.15 to 15 µM

## C=CC1CC1(NC(=O)[C@@H]1C[C@@H](NC(=O)c2ccccc2OC)CN1C(=O)[C@@H](NC(=O)CC1CC1)C(C)(C)C)C(=O)NS(=O)(=O)C1CC1 (stereo partly shown) [Compound 35]
[1]; [4]
  IC50: 150 to 15000 nM
[2]
  EC50: > 15 µM
